Experimental data as given in PubChem BioAssay AID1963864 (Molecular Pharmacology Branch, DTP, NCI, 2024).

Tested on: KRAS PDC multicell spheroid viability
Assay: Anticancer human tumor 521955-158-R6-J3-PDC patient-derived pancreatic carcinoma cell line growth inhibition [KRAS2]
Settings: for IC50: curve of first compound; for viability, T/C: stronger effect = lower value
Outline: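 KRAS-mutant tumor cells were grown as spheroids with HUVEC endothelial cells and human MSCs as stroma. Targeted agents were tested alone and with KRAS pathway inhibitors. Doses started at or near clinical Cmax, or 10 microM, descending half-log.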

[1] = second compound 0.0316 µM, first compound 0.000316 µM
[2] = second compound 0.0316 µM, first compound 0.001 µM
[3] = second compound 0.0316 µM, first compound 0.00316 µM
[4] = second compound 0.0316 µM, first compound 0.01 µM
[5] = second compound 0.0316 µM, first compound 0.0316 µM
[6] = second compound 0.1 µM, first compound 0.000316 µM
[7] = second compound 0.1 µM, first compound 0.001 µM
[8] = second compound 0.1 µM, first compound 0.00316 µM
[9] = second compound 0.1 µM, first compound 0.01 µM
[10] = second compound 0.1 µM, first compound 0.0316 µM
[11] = second compound 0.316 µM, first compound 0.000316 µM
[12] = second compound 0.316 µM, first compound 0.001 µM
[13] = second compound 0.316 µM, first compound 0.00316 µM
[14] = second compound 0.316 µM, first compound 0.01 µM
[15] = second compound 0.316 µM, first compound 0.0316 µM
[16] = second compound 1 µM, first compound 0.000316 µM
[17] = second compound 1 µM, first compound 0.001 µM
[18] = second compound 1 µM, first compound 0.00316 µM
[19] = second compound 1 µM, first compound 0.01 µM
[20] = second compound 1 µM, first compound 0.0316 µM
[21] = second compound 3.16 µM, first compound 0.000316 µM
[22] = second compound 3.16 µM, first compound 0.001 µM
[23] = second compound 3.16 µM, first compound 0.00316 µM
[24] = second compound 3.16 µM, first compound 0.01 µM
[25] = second compound 3.16 µM, first compound 0.0316 µM
[26] = second compound 0.0316 µM, first compound 0.1 µM
[27] = second compound 0.1 µM, first compound 0.1 µM
[28] = second compound 0.316 µM, first compound 0.1 µM
[29] = second compound 1 µM, first compound 0.1 µM
[30] = second compound 3.16 µM, first compound 0.1 µM
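Note: drug exposure lasted seven days.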
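Throughout, for viability, T/C: 100% = DMSO vehicle wells and lower means fewer viable cells.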

SMILES | IC50 (second compound 0.0316 µM) [nM] | IC50 (second compound 0.1 µM) [nM] | IC50 (second compound 0.316 µM) [nM] | IC50 (second compound 1 µM) [nM] | IC50 (second compound 3.16 µM) [nM] | viability, T/C [1] [%] | viability, T/C [2] [%] | viability, T/C [3] [%] | viability, T/C [4] [%] | viability, T/C [5] [%] | viability, T/C [6] [%] | viability, T/C [7] [%] | viability, T/C [9] [%] | viability, T/C [10] [%] | viability, T/C [14] [%] | viability, T/C [15] [%] | viability, T/C [19] [%] | viability, T/C [20] [%] | viability, T/C [24] [%] | viability, T/C [25] [%] | also measured
CC(=O)Nc1cccc(-n2c(=O)n(C3CC3)c(=O)c3c(Nc4ccc(I)cc4F)n(C)c(=O)c(C)c32)c1 + C=CC(=O)N1CCN(c2nc(OCC3CCCN3C)nc3c2CCN(c2cccc4cccc(C)c24)C3)CC1CC#N | > 31.6 | 28.4 | 21.2 | 9.67 | < 0.1 | 109 | 108 | 83.2 | 83.9 | 52.8 | 111 | 100 | 76.8 | 46.8 | 66.8 | 41.2 | 50.9 | 38 | 2.14 | 8.79 | viability, T/C (second compound 0.0316 µM, first compound 0.0001 µM): 109%; viability, T/C (second compound 0.1 µM, first compound 0.0001 µM): 93.1%; viability, T/C [8]: 81.4%; viability, T/C (second compound 0.316 µM, first compound 0.0001 µM): 89.4%; viability, T/C [11]: 96%; viability, T/C [12]: 101%; viability, T/C [13]: 83.9%; viability, T/C (second compound 1 µM, first compound 0.0001 µM): 72.4%; viability, T/C [16]: 72.4%; viability, T/C [17]: 87.1%; viability, T/C [18]: 65.4%; viability, T/C (second compound 3.16 µM, first compound 0.0001 µM): 40.3%; viability, T/C [21]: 52.7%; viability, T/C [22]: 24.4%; viability, T/C [23]: 29.1%
CC(=O)OC12COC1CC(O)C1(C)C(=O)C(O)C3=C(C)C(OC(=O)C(O)C(NC(=O)OC(C)(C)C)c4ccccc4)CC(O)(C(OC(=O)c4ccccc4)C21)C3(C)C (stereo not given) + C=CC(=O)N1CCN(c2nc(OCC3CCCN3C)nc3c2CCN(c2cccc4cccc(C)c24)C3)CC1CC#N | > 3160 | > 3160 | > 3160 | > 3160 | > 3160 | – | – | – | 83.9 | 72.8 | – | – | 79.6 | 78.7 | 69.2 | 52.9 | 71 | 82.2 | 83.2 | 81.4 | viability, T/C [26]: 71.7%; viability, T/C (second compound 0.0316 µM, first compound 0.316 µM): 80.5%; viability, T/C (second compound 0.0316 µM, first compound 1 µM): 93%; viability, T/C (second compound 0.0316 µM, first compound 3.16 µM): 110%; viability, T/C [27]: 70.4%; viability, T/C (second compound 0.1 µM, first compound 0.316 µM): 81.7%; viability, T/C (second compound 0.1 µM, first compound 1 µM): 95%; viability, T/C (second compound 0.1 µM, first compound 3.16 µM): 130%; viability, T/C [28]: 68.8%; viability, T/C (second compound 0.316 µM, first compound 0.316 µM): 75.1%; viability, T/C (second compound 0.316 µM, first compound 1 µM): 81.3%; viability, T/C (second compound 0.316 µM, first compound 3.16 µM): 87.9%; viability, T/C [29]: 82.7%; viability, T/C (second compound 1 µM, first compound 0.316 µM): 83.3%; viability, T/C (second compound 1 µM, first compound 1 µM): 113%; viability, T/C (second compound 1 µM, first compound 3.16 µM): 112%; viability, T/C [30]: 76.8%; viability, T/C (second compound 3.16 µM, first compound 0.316 µM): 74.3%; viability, T/C (second compound 3.16 µM, first compound 1 µM): 102%; viability, T/C (second compound 3.16 µM, first compound 3.16 µM): 107%
CN(C)C/C=C/C(=O)Nc1cc2c(Nc3ccc(F)c(Cl)c3)ncnc2cc1O[C@H]1CCOC1 + C=CC(=O)N1CCN(c2nc(OCC3CCCN3C)nc3c2CCN(c2cccc4cccc(C)c24)C3)CC1CC#N | > 100 | > 100 | > 100 | > 100 | < 0.316 | 108 | 92.2 | 81.8 | 72.4 | 66 | 97.2 | 93.8 | 64.7 | 72.4 | 78.7 | 68 | 63.4 | 64.1 | 12.7 | 12.8 | viability, T/C [26]: 66.8%; viability, T/C [8]: 89.6%; viability, T/C [27]: 61.8%; viability, T/C [11]: 99.9%; viability, T/C [12]: 92.2%; viability, T/C [13]: 91%; viability, T/C [28]: 67.6%; viability, T/C [16]: 91.9%; viability, T/C [17]: 93.4%; viability, T/C [18]: 81.3%; viability, T/C [29]: 64.5%; viability, T/C [21]: 48.5%; viability, T/C [22]: 32.9%; viability, T/C [23]: 15.2%; viability, T/C [30]: 23.1%
